This is an account of results in ChEMBL document CHEMBL4130427, “Synthesis and evaluation of asymmetric curcuminoid analogs as potential anticancer agents that downregulate NF-κB activation and enhance the sensitivity of gastric cancer cell lines to irinotecan chemotherapy” (Eur J Med Chem, 2017).

The structures appear in SMILES notation. Active and inactive are the calls of the source. No cut-off for these calls is given here.

Assay [1] concerns SGC-7901. The experiment in a line: Growth inhibition of human SGC7901 cells at 20 uM after 72 hrs by MTT assay. Format: functional, cell-based. (In general: Formazan colour is commonly taken as a measure of viable cells.)
For assay [2], the system named is SGC-7901. The experiment in a line: Potency index, ratio of compound effect to curcumin effect for growth inhibition of human SGC7901 cells. In kind it is functional.
Assay [3] has as its system BGC-823. The experiment in a line: Potency index, ratio of compound effect to curcumin effect for growth inhibition of human BGC823 cells. Format: functional.
For assay [4], the system named is BGC-823. The experiment in a line: Growth inhibition of human BGC823 cells at 20 uM after 72 hrs by MTT assay. Format: functional, cell-based.
In assay [5] the test system is SGC-7901. The experiment in a line: Inhibition of colony formation in human SGC7901 cells at 5 uM treated for 12 hrs followed by incubation in drug free medium for 14 days by crystal violet staining based assay. Format: functional, cell-based.
Assay [6] has as its system BGC-823. The experiment in a line: Inhibition of colony formation in human BGC823 cells at 5 uM treated for 12 hrs followed by incubation in drug free medium for 14 days by crystal violet staining based assay. In kind it is functional, cell-based.
A further assay is filed under the species Mus musculus. The experiment in a line: Growth inhibition of MFC cells at 20 uM after 72 hrs by MTT assay. In kind it is functional.
In assay [7] the test system is SGC-7901. The experiment in a line: Inhibition of colony formation in human SGC7901 cells treated for 12 hrs followed by incubation in drug free medium for 14 days by crystal violet staining based assay. Format: functional, cell-based.
Assay [8] relates to BGC-823. The experiment in a line: Induction of apoptosis in human BGC823 cells assessed as upegulation of cleaved caspase-3 protein expression at 2.5 to 5 uM after 48 hrs by Western blot method. Format: functional, cell-based.
The species named for assay [9] is Homo sapiens. The experiment in a line: Inhibition of NFkappaB activation in human BGC823 cells assessed as potentiation of irrinotecan-induced cell growth inhibition at 1 uM after 48 hrs by inverted microscopic method relative to irrinotecan alone. Format: cell-based.
For assay [10], the species on record is Homo sapiens. The experiment in a line: Inhibition of NFkappaB activation in human BGC823 cells assessed as potentiation of irrinotecan-induced cell growth inhibition at 1 uM after 48 hrs by inverted microscopic method relative to (3E,5E)-3-(2,3-dimethoxybenzylidene)-5-(4-hydroxy-3-methoxybenzylidene)dihydro-2H-pyran-4(3H)-one alone. In kind it is cell-based.

For assay [11], the species on record is Homo sapiens. The experiment in a line: Inhibition of NFkappaB activation in human BGC823 cells assessed as reduction in TNFalpha-induced IkBalpha degradation at 1 to 5 uM preincubated for 2 hrs followed by TNFalpha addition measured after 30 mins by Western blot method. Format: cell-based. In general terms: In western blotting, separated proteins are transferred to a membrane and probed.

Assay [12] relates to BGC-823. The experiment in a line: Induction of apoptosis in human BGC823 cells assessed as upegulation of Bax protein expression at 2.5 to 5 uM after 48 hrs by Western blot method. In kind it is functional, cell-based.
Assay [13] concerns BGC-823. The experiment in a line: Induction of apoptosis in human BGC823 cells assessed as downregulation of bcl2 protein expression at 2.5 to 5 uM after 48 hrs by Western blot method. In kind it is functional, cell-based.
Assay [14] has as its system SGC-7901. The experiment in a line: Induction of apoptosis in human SGC7901 cells assessed as upegulation of cleaved PARP protein expression at 2.5 to 5 uM after 48 hrs by Western blot method. In kind it is functional, cell-based.
Assay [15] concerns BGC-823. The experiment in a line: Induction of apoptosis in human BGC823 cells assessed as upegulation of cleaved PARP protein expression at 2.5 to 5 uM after 48 hrs by Western blot method. Format: functional, cell-based.
The species entered for assay [16] is Homo sapiens. The experiment in a line: Inhibition of NFkappaB activation in human BGC823 cells assessed as potentiation of irrinotecan-induced cell growth inhibition at 1 uM after 72 hrs by MTT method relative to irrinotecan alone. In kind it is cell-based.
Assay [17] is filed under the species Homo sapiens. The experiment in a line: Inhibition of NFkappaB activation in human SGC7901 cells assessed as reduction in TNFalpha-induced IkBalpha degradation at 1 to 5 uM preincubated for 2 hrs followed by TNFalpha addition measured after 30 mins by Western blot method. Format: cell-based.
The species named for assay [18] is Homo sapiens. The experiment in a line: Inhibition of NFkappaB activation in human BGC823 cells assessed as potentiation of irrinotecan-induced decrease in survival cell count at 1 uM after 48 hrs by cell analyzer method. In kind it is cell-based.
Assay [19] concerns SGC-7901. The experiment in a line: Growth inhibition of human SGC7901 cells after 72 hrs by MTT assay. Format: functional, cell-based. To be noted: SGC-7901, 72 h.
The test system of assay [20] is SGC-7901. The experiment in a line: Induction of apoptosis in human SGC7901 cells assessed as upegulation of Bax protein expression at 2.5 to 5 uM after 48 hrs by Western blot method. Format: functional, cell-based.
Assay [21] deals with SGC-7901. The experiment in a line: Induction of apoptosis in human SGC7901 cells assessed as apoptotic nuclei formation at 2.5 to 5 uM after 24 hrs by Hoechst 33258 staining based fluorescence microscopic method. In kind it is functional, cell-based.
Assay [22] concerns SGC-7901. The experiment in a line: Induction of apoptosis in human SGC7901 cells assessed as upegulation of cleaved caspase-3 protein expression at 2.5 to 5 uM after 48 hrs by Western blot method. In kind it is functional, cell-based.
The test system of assay [23] is BGC-823. The experiment in a line: Growth inhibition of human BGC823 cells after 72 hrs by MTT assay. Format: functional, cell-based. Conditions: BGC-823, 72 h.
Assay [24] is filed under the species Homo sapiens. The experiment in a line: Inhibition of NFkappaB activation in human BGC823 cells assessed as potentiation of irrinotecan-induced decrease in colony formation at 1 uM preincubated for 12 hrs followed by incubation in drug free medium for 11 days by crystal violet staining based assay. In kind it is cell-based.
The species entered for assay [25] is Homo sapiens. The experiment in a line: Inhibition of NFkappaB activation in human BGC823 cells assessed as potentiation of irrinotecan-induced cell growth inhibition at 1 uM after 72 hrs by MTT method relative to (3E,5E)-3-(2,3-dimethoxybenzylidene)-5-(4-hydroxy-3-methoxybenzylidene)dihydro-2H-pyran-4(3H)-one alone. In kind it is cell-based.
Assay [26] has as its system BGC-823. The experiment in a line: Inhibition of colony formation in human BGC823 cells treated for 12 hrs followed by incubation in drug free medium for 14 days by crystal violet staining based assay. Format: functional, cell-based.
Assay [27] relates to SGC-7901. The experiment in a line: Induction of apoptosis in human SGC7901 cells assessed as downregulation of bcl2 protein expression at 2.5 to 5 uM after 48 hrs by Western blot method. In kind it is functional, cell-based.

As to `COc1ccc(/C=C2\COC/C(=C\c3ccc(O)c(OC)c3)C2=O)c(OC)c1`, in the assay on SGC-7901 [1], the “growth inhibition (GI)” value was “Active”. Also, the Ratio with SGC-7901 [2] is listed as over 2.
On to `COc1ccc(/C=C2\COC/C(=C\c3ccc(O)c(OC)c3)C2=O)c(C(F)(F)F)c1`, for which the results for the Ratio with BGC-823 [3] and in the assay with SGC-7901 [2] were over 10 and over 2, respectively. Besides, the “growth inhibition (GI)” value with SGC-7901 [1] and with BGC-823 [4] was “Active” in each case.
Consider `Cc1ccc(S(=O)(=O)/C=C/C#N)cc1`, for which the inhibition result in the assay on SGC-7901 [5] and in the assay on BGC-823 [6] was “Active” throughout.
Take `Cc1ccc2nc(NCCN)c3ncc(C)n3c2c1`: the “growth inhibition (GI)” value in the assay on SGC-7901 [1], in the assay on BGC-823 [4] and in the assay filed under Mus musculus was “Active” each time.
With `COc1cc(/C=C/C(=O)CC(=O)/C=C/c2ccc(O)c(OC)c2)ccc1O`, the “growth inhibition (GI)” value in the assay on SGC-7901 [1], in the assay on BGC-823 [4] and in the assay filed under Mus musculus was “Active” each time.
In general, IC50 refers to the concentration needed to halve the response being measured. The low end stands for inhibition by little substance, the high end for a need for much substance. For the compound `COc1cc(/C=C2\COC/C(=C\c3cccc(OC)c3OC)C2=O)ccc1O`, the inhibition result in the assay on SGC-7901 [7], in the assay filed under Homo sapiens [11], in the assay listed under Homo sapiens [17] and with BGC-823 [26] was “Dose-dependent effect” throughout. Besides, the outcome with BGC-823 [8], in the assay with BGC-823 [12], in the assay on BGC-823 [13], in the assay on SGC-7901 [14], in the assay with BGC-823 [15] and in the assay on SGC-7901 [20] was Active. Moreover, the result in the assay on SGC-7901 [21], with SGC-7901 [22] and with SGC-7901 [27] was Active. Further, the fold change (FC) in the assay filed under Homo sapiens [9] is 2; in the assay filed under Homo sapiens [10], 3; in the assay filed under Homo sapiens [16] it was 10; in the assay listed under Homo sapiens [25], 2.5. The Ratio is over 10 in the assay on BGC-823 [3] and over 2 in the assay on SGC-7901 [2]. For the same compound, the “growth inhibition (GI)” value in the assay on SGC-7901 [1], in the assay with BGC-823 [4] and in the assay listed under Mus musculus was “Active” each time. Besides, the inhibition entry in the assay listed under Homo sapiens [18] and in the assay listed under Homo sapiens [24] was “Active” each time. Further, the IC50 in the assay with SGC-7901 [19] was 1.6 µM; in the assay with BGC-823 [23], 3.5 µM.
For `COc1ccc(OC)c(/C=C2\COC/C(=C\c3ccc(O)c(OC)c3)C2=O)c1`, the Ratio with BGC-823 [3] was over 10; with SGC-7901 [2], over 2. Moreover, the “growth inhibition (GI)” value with SGC-7901 [1], with BGC-823 [4] and in the assay filed under Mus musculus was “Active” each time.
Regarding `COc1ccc(/C=C2\COC/C(=C\c3ccc(O)c(OC)c3)C2=O)cc1O`, the values for the Ratio with BGC-823 [3] and in the assay with SGC-7901 [2] were over 10 and over 2, respectively. Also, the “growth inhibition (GI)” value in the assay on SGC-7901 [1], in the assay with BGC-823 [4] and in the assay listed under Mus musculus was “Active” each time.
